Measured values as given in patent US20240207427A1, “SELECTIVE DRUG RELEASE FROM INTERNALIZED CONJUGATES OF BIOLOGICALLY ACTIVE COMPOUNDS” (priority 2021, published 2024).
Where two headings read alike, the source gives them in different places.

Columns and labels:
Type in all cases: cell-based
[1] = test system: non-small-cell lung cancer cells (Calu1); test: In vitro potency (CellTiter-Glo, 96 h), Calu1; details: Homo sapiens, Calu-1, 96 h
Procedure: (§1) In vitro potency was assessed on multiple cancer cell lines. All cell lines were authenticated by STR profiling at IDEXX Bioresearch and cultured for no more than 2 months after resuscitation. Cells cultured in log-phase growth were seeded for 24 hours in 96-well plates containing […] RPMI 1640 supplemented with 20% FBS. Serial dilutions of antibody-drug conjugates in cell culture media were prepared at 4× working concentrations, and 50 μL of each dilution was added to the 96-well plates. Following addition of test articles, cells were incubated with test articles for 4 days at 37 0° C. After 96 hours, growth inhibition was assessed by CellTiterGlo® (Promega, Madison, WI) and luminescence was measured on a plate reader.
In Table 7, IC50 values for ADCs are given in ng/mL. Cell viability was determined by CellTiter-Glo staining after 96 h exposure to ADC. ND=Not Determined. Ag2 is an antibody targeting a ubiquitous and readily internalizable antigen. The cancer cell lines tested are renal carcinoma cells (786-0), melanoma cells (A2058), pancreatic cancer cells (BxPC3), non-small-cell lung cancer cells (Calu1), anaplastic large cell lymphoma cells (DEL, DELBVR, Karpas299), Hodgkin's lymphoma cells (L540cy), (Ls174T), breast cancer cells (MDA-MB-231), acute myeloid leukemia cells (MOLM-13), and B-lymphocyte cancer cells (SU-DHL4).
as §1, with “FBS.” for “FBS. Serial dilutions of antibody-drug conjugates in cell culture media were prepared at 4× working concentrations, and 50 μL of each dilution was added to the 96-well plates.”
Cell viability was determined by CellTiter-Glo staining after 96 h exposure to the compound. ND=Not Determined. The cancer cell lines tested are renal carcinoma cells (786-0), melanoma cells (A2058), pancreatic cancer cells (BxPC3), non-small-cell lung cancer cells (Calu1), anaplastic large cell lymphoma cells (DEL, DELBVR, Karpas299), Hodgkin's lymphoma cells (L540cy), (Ls 174T), breast cancer cells (MDA-MB-231), acute myeloid leukemia cells (MOLM-13), B-lymphocyte cancer cells (SU-DHL4), multiple myeloma cells (MM.1R), (U266), and melanoma cells (SK-MEL-5).
as §1, with “37°” for “37 0°”
In the following Tables IC50 values for ADCs and CPT free drugs are given in ng/mL and nmol/L concentrations. Cell viability was determined by CellTiter-Glo staining after 96 h exposure to ADC or CPT free drug.
Cell viability was determined by CellTiter-Glo staining after 96 h exposure to ADC. ND=Not Determined.

[2] = test system: Hodgkin's lymphoma cells (L540cy); test: In vitro potency (CellTiter-Glo, 96 h), L540cy
Outline: (§2)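 IC50 (ng/mL or nmol/L) derived from CellTiter-Glo luminescence after 96 h exposure at 37 °C to serial dilutions of ADC or CPT free drug. Log-phase cells had been plated 24 h beforehand in RPMI 1640 containing 20% FBS.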

[3] = test system: renal carcinoma cells (786-O); test: In vitro potency (CellTiter-Glo, 96 h), 786-O; details: Homo sapiens, 786-0, 96 h
Outline: as §2

[4] = test system: anaplastic large cell lymphoma cells (DEL); test: In vitro potency (CellTiter-Glo, 96 h), DEL
Outline: as §2

[5] = test system: melanoma cells (A2058); test: In vitro potency (CellTiter-Glo, 96 h), A2058; details: Homo sapiens, A2058, 96 h
Outline: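 RPMI 1640/20% FBS cultures, log phase, plated 24 h → ADC titration → 4 d, 37 °C → luminescence → IC50, ng/mL.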

[6] = test system: acute myeloid leukemia cells (MOLM-13); test: In vitro potency (CellTiter-Glo, 96 h), MOLM-13; details: Homo sapiens, MOLM-13, 96 h
Outline: (§3)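 Seed log-phase cells 24 h (RPMI 1640, 20% FBS); add ADC serial dilutions; incubate 96 h, 37 °C; read luminescence; IC50 in ng/mL.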

[7] = test system: B-lymphocyte cancer cells (SU-DHL4); test: In vitro potency (CellTiter-Glo, 96 h), SU-DHL-4; details: Homo sapiens, SU-DHL-4, 96 h
Outline: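 Growth inhibition after 96 h at 37 °C with test article, measured by luminescence; cells in RPMI 1640, 20% FBS.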

[8] = test system: anaplastic large cell lymphoma cells (DELBVR); test: In vitro potency (CellTiter-Glo, 96 h), DELBVR
Outline: as §2

[9] = test system: anaplastic large cell lymphoma cells (Karpas299); test: In vitro potency (CellTiter-Glo, 96 h), Karpas299; details: Homo sapiens, KARPAS-299, 96 h
Outline: as §2

[10] = test system: Ls174T cells; test: In vitro potency (CellTiter-Glo, 96 h), Ls174T; details: Homo sapiens, LS174T
Outline: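 Antibody-drug conjugates, prepared as dilution series in culture medium, were added to cells seeded a day earlier in RPMI 1640 supplemented with 20% FBS. After four days at 37 °C, luminescence measured growth inhibition.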

[11] = test system: breast cancer cells (MDA-MB-231); test: In vitro potency (CellTiter-Glo, 96 h), MDA-MB-231; details: Homo sapiens, MDA-MB-231, 96 h
Outline: as §2

[12] = test system: pancreatic cancer cells (BxPC3); test: In vitro potency (CellTiter-Glo, 96 h), BxPC3; details: Homo sapiens, BXPC-3, 96 h
Outline: as §3

[13] = CPT free drugs, Table 24, CellTiter-Glo after 96 h exposure, read-out: IC50 (nmol/L) Calu1
[14] = CPT free drugs, Table 24, CellTiter-Glo after 96 h exposure, read-out: IC50 (nmol/L) L540cy
[15] = CPT free drugs, Table 24, CellTiter-Glo after 96 h exposure, read-out: IC50 (nmol/L) 786-O
[16] = CPT free drugs, Table 24, CellTiter-Glo after 96 h exposure, read-out: IC50 (nmol/L) DEL
[17] = CPT free drugs, Table 24, CellTiter-Glo after 96 h exposure, read-out: IC50 (nmol/L) A2058
[18] = CPT free drugs, Table 24, CellTiter-Glo after 96 h exposure, read-out: IC50 (nmol/L) MOLM-13
[19] = CPT free drugs, Table 24, CellTiter-Glo after 96 h exposure, read-out: IC50 (nmol/L) SU-DHL-4
[20] = CPT free drugs, Table 24, CellTiter-Glo after 96 h exposure, read-out: IC50 (nmol/L) DELBVR
[21] = CPT free drugs, Table 24, CellTiter-Glo after 96 h exposure, read-out: IC50 (nmol/L) Karpas299
[22] = CPT free drugs, Table 24, CellTiter-Glo after 96 h exposure, read-out: IC50 (nmol/L) Ls174T
[23] = CPT free drugs, Table 24, CellTiter-Glo after 96 h exposure, read-out: IC50 (nmol/L) MDAMB231
[24] = CPT free drugs, Table 24, CellTiter-Glo after 96 h exposure, read-out: IC50 (nmol/L) BxPC3

## CC[C@@]1(O)C(=O)OCc2c1cc1n(c2=O)Cc2c-1nc1cc3c(cc1c2CN)CCO3 [Compound 2n]
[1]; read-out: Calu1 IC50
  IC50: 18 nmol/L
[1]; read-out: IC50 (nmol/L) Calu1
  IC50: 21 nmol/L
[2]; read-out: IC50 (nmol/L) L540cy, CPT free drugs, Table 24, CellTiter-Glo after 96 h exposure
  IC50: 1 nmol/L
[2]; read-out: L540cy IC50, Table 28, CPT free drugs, Hodgkin's lymphoma cells L540cy, CellTiter-Glo
  IC50: 2 nmol/L
[3]; read-out: 786-O IC50, Table 28, CPT free drugs, renal carcinoma cells 786-O, 96 h, CellTiter-Glo
  IC50: 5 nmol/L
[3]; read-out: IC50 (nmol/L) 786-O, CPT free drugs, Table 24, CellTiter-Glo after 96 h exposure
  IC50: 1 nmol/L
[4]; read-out: DEL IC50, Table 28, CPT free drugs, anaplastic large cell lymphoma cells DEL, CellTiter-Glo
  IC50: 1 nmol/L
[5]; read-out: A2058 IC50
  IC50: 3 nmol/L
[6]; read-out: IC50 (nmol/L) MOLM-13, CPT free drugs, Table 24, CellTiter-Glo after 96 h exposure
  IC50: 6 nmol/L
[6]; read-out: MOLM-13 IC50, Table 28, CPT free drugs, acute myeloid leukemia cells MOLM-13, 96 h, CellTiter-Glo
  IC50: 29 nmol/L
[7]; read-out: IC50 (nmol/L) SU-DHL-4, CPT free drugs, Table 24, CellTiter-Glo after 96 h exposure
  IC50: 1 nmol/L
[7]; read-out: SU-DHL-4 IC50, Table 28, CPT free drugs, B-lymphocyte cancer cells SU-DHL4, 96 h, CellTiter-Glo
  IC50: 1 nmol/L
[8]; read-out: DELBVR IC50, Table 28, CPT free drugs, anaplastic large cell lymphoma cells DELBVR, CellTiter-Glo
  IC50: 1 nmol/L
[9]; read-out: IC50 (nmol/L) Karpas299, CPT free drugs, Table 24, CellTiter-Glo after 96 h exposure
  IC50: 1 nmol/L
[9]; read-out: Karpas299 IC50, Table 28, CPT free drugs, anaplastic large cell lymphoma cells Karpas299, 96 h, CellTiter-Glo
  IC50: 5 nmol/L
[10]; 96 h, read-out: IC50 (nmol/L) Ls174T, CPT free drugs, Table 24, CellTiter-Glo after 96 h exposure
  IC50: 0.8 nmol/L
[10]; 96 h, read-out: Ls174T IC50, Table 28, CPT free drugs, Ls174T cells, 96 h, CellTiter-Glo
  IC50: 4 nmol/L
[11]; read-out: IC50 (nmol/L) MDAMB231, CPT free drugs, Table 24, CellTiter-Glo after 96 h exposure
  IC50: 1 nmol/L
[11]; read-out: MDAMB231 IC50, Table 28, CPT free drugs, breast cancer cells MDA-MB-231, 96 h, CellTiter-Glo
  IC50: 8 nmol/L
[12]; read-out: BxPC3 IC50, Table 28, CPT free drugs, pancreatic cancer cells BxPC3, 96 h, CellTiter-Glo
  IC50: 3 nmol/L
[12]; read-out: IC50 (nmol/L) BxPC3, CPT free drugs, Table 24, CellTiter-Glo after 96 h exposure
  IC50: 3 nmol/L

## CCc1cc2nc3c(c(CN)c2c(F)c1C)Cn1c-3cc2c(c1=O)COC(=O)[C@]2(O)CC [Compound 2w]
[1]; [13]
  IC50: > 1000 nmol/L
[2]; [14]
  IC50: 922 nmol/L
[3]; [15]
  IC50: 649 nmol/L
[4]; [16]
  IC50: 283 nmol/L
[5]; [17]
  IC50: 286 nmol/L
[6]; [18]
  IC50: > 1000 nmol/L
[7]; [19]
  IC50: 958 nmol/L
[8]; [20]
  IC50: 271 nmol/L
[9]; [21]
  IC50: > 1000 nmol/L
[10]; [22]
  IC50: 843 nmol/L
[11]; [23]
  IC50: > 1000 nmol/L
[12]; [24]
  IC50: > 1000 nmol/L

## CC[C@@]1(O)C(=O)OCc2c1cc1n(c2=O)Cc2c-1nc1cc(F)c(O)c(F)c1c2CN [Compound 3d]
[1]; [13]
  IC50: > 1000 nmol/L
[2]; [14]
  IC50: > 1000 nmol/L
[3]; [15]
  IC50: > 1000 nmol/L
[4]; [16]
  IC50: 843 nmol/L
[5]; [17]
  IC50: > 1000 nmol/L
[6]; [18]
  IC50: > 1000 nmol/L
[7]; [19]
  IC50: > 1000 nmol/L
[8]; [20]
  IC50: > 1000 nmol/L
[9]; [21]
  IC50: > 1000 nmol/L
[10]; [22]
  IC50: > 1000 nmol/L
[11]; [23]
  IC50: > 1000 nmol/L
[12]; [24]
  IC50: > 1000 nmol/L
